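The compound was tested at five concentrations on cells cultured in 96-well plates, with a 48-hour exposure period. GI50 marks 50% less growth.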 Calls of active or inactive are those of the source. Rule as the data show it: active = GI50 up to about 1.1 µM and inactive = higher.
Tests used:
Assay in all cases: NCI-60 cell line screen, 48 h
HCT-116 = tested on: HCT-116
CCRF-CEM = tested on: CCRF-CEM
HOP-62 = tested on: HOP-62
OVCAR-8 = tested on: OVCAR-8
HOP-92 = tested on: HOP-92
SN12C = tested on: SN12C
HT-29 = tested on: HT-29
HCT-15 = tested on: HCT-15
A498 = tested on: A498
SK-MEL-2 = tested on: SK-MEL-2
LOX IMVI = tested on: LOX IMVI
SW-620 = tested on: SW-620
M14 = tested on: M14
K562 = tested on: K562
UACC-257 = tested on: UACC-257
OVCAR-3 = tested on: OVCAR-3

Compound | GI50 (HCT-116) | GI50 (CCRF-CEM) | GI50 (HOP-62) | GI50 (OVCAR-8) | GI50 (HOP-92) | GI50 (SN12C) | GI50 (HT-29) | GI50 (HCT-15) [µM] | GI50 (A498) | GI50 (SK-MEL-2) | GI50 (LOX IMVI) | GI50 (SW-620) | GI50 (M14) | GI50 (K562) | GI50 (UACC-257) | GI50 (OVCAR-3)
CSC(=S)N/N=C/c1nccc2ccccc12 | 1.25 µM (inactive) | 0.115 µM (active) | 2.25 µM (inactive) | 0.454 µM (active) | 1.37 µM (inactive) | 1.6 µM (inactive) | 0.701 µM (active) | 3.45 | 2.45 µM (inactive) | 1.07 µM (active) | 1.49 µM (inactive) | 0.631 µM (active) | 1.36 µM (inactive) | 0.392 µM (active) | 2.07 µM (inactive) | –
CC1(C)OC(=O)C(=C2CC(c3ccccc3)c3ccccc32)C(=O)O1 (stereo not given) | > 100 µM (inactive) | > 100 µM (inactive) | > 100 µM (inactive) | > 100 µM (inactive) | > 100 µM (inactive) | > 100 µM (inactive) | > 100 µM (inactive) | > 100 | > 100 µM (inactive) | – | > 100 µM (inactive) | > 100 µM (inactive) | > 100 µM (inactive) | > 100 µM (inactive) | > 100 µM (inactive) | > 100 µM (inactive)
[O-][S+]1Nc2cccc(C(F)(F)F)c2S1 (stereo not given) | 27.3 µM (inactive) | 6.78 µM (inactive) | 49.8 µM (inactive) | 54.8 µM (inactive) | 35.6 µM (inactive) | 35.6 µM (inactive) | 35.7 µM (inactive) | 18.6 | 22.9 µM (inactive) | 24.3 µM (inactive) | 21.1 µM (inactive) | 9.91 µM (inactive) | 65.3 µM (inactive) | 31.3 µM (inactive) | 32.1 µM (inactive) | 33.5 µM (inactive)
CC(C)N1CC2CC(CN(C(=O)c3ccccc3)C2)C1.[O-][Cl+3]([O-])([O-])O | – | > 100 µM (inactive) | > 100 µM (inactive) | > 100 µM (inactive) | > 100 µM (inactive) | > 100 µM (inactive) | > 100 µM (inactive) | > 100 | > 100 µM (inactive) | > 100 µM (inactive) | > 100 µM (inactive) | > 100 µM (inactive) | > 100 µM (inactive) | > 100 µM (inactive) | > 100 µM (inactive) | > 100 µM (inactive)
COc1cc(/C=C/C(=O)c2sc(Nc3ccccc3)nc2C)ccc1O | – | 88.5 µM (inactive) | 40.7 µM (inactive) | 96.8 µM (inactive) | 35.6 µM (inactive) | 59.6 µM (inactive) | 97.9 µM (inactive) | 84.1 | > 100 µM (inactive) | > 100 µM (inactive) | 48.5 µM (inactive) | > 100 µM (inactive) | – | 56.4 µM (inactive) | > 100 µM (inactive) | 33.5 µM (inactive)
COc1ccc(C2S/C(=C\c3cccc([N+](=O)[O-])c3)C(=O)N2NC(=O)Cc2ccccc2)cc1 (stereo not given) | > 100 µM (inactive) | > 100 µM (inactive) | > 100 µM (inactive) | > 100 µM (inactive) | > 100 µM (inactive) | > 100 µM (inactive) | > 100 µM (inactive) | > 100 | > 100 µM (inactive) | > 100 µM (inactive) | > 100 µM (inactive) | > 100 µM (inactive) | > 100 µM (inactive) | > 100 µM (inactive) | > 100 µM (inactive) | –
COc1ccc(C(=O)C(C(=O)C(=O)Nc2nccs2)c2ccc(OC)cc2)cc1 (stereo not given) | > 100 µM (inactive) | > 100 µM (inactive) | – | > 100 µM (inactive) | > 100 µM (inactive) | > 100 µM (inactive) | > 100 µM (inactive) | > 100 | > 100 µM (inactive) | > 100 µM (inactive) | > 100 µM (inactive) | > 100 µM (inactive) | > 100 µM (inactive) | > 100 µM (inactive) | > 100 µM (inactive) | > 100 µM (inactive)
O=C(c1ccc(Cl)cc1)c1ccc(OCCCCCCCCCCOc2ccc(C(=O)c3ccc(Cl)cc3)cc2)cc1 | – | > 100 µM (inactive) | > 100 µM (inactive) | > 100 µM (inactive) | > 100 µM (inactive) | > 100 µM (inactive) | > 100 µM (inactive) | > 100 | > 100 µM (inactive) | > 100 µM (inactive) | > 100 µM (inactive) | > 100 µM (inactive) | – | > 100 µM (inactive) | > 100 µM (inactive) | > 100 µM (inactive)
C[C@@H]1CC(=O)C2CCCC1C2=O (stereo not given in full) | > 100 µM (inactive) | > 100 µM (inactive) | > 100 µM (inactive) | > 100 µM (inactive) | > 100 µM (inactive) | > 100 µM (inactive) | > 100 µM (inactive) | > 100 | > 100 µM (inactive) | – | > 100 µM (inactive) | > 100 µM (inactive) | > 100 µM (inactive) | – | > 100 µM (inactive) | > 100 µM (inactive)
COc1cc2cc(OC)c3cc4c(cc3c2c(OC)c1OC)OCO4 | 38.2 µM (inactive) | 15 µM (inactive) | 42.6 µM (inactive) | > 59.4 µM (inactive) | > 46 µM (inactive) | > 69.3 µM (inactive) | 10.9 µM (inactive) | 12.8 | > 45.5 µM (inactive) | 71 µM (inactive) | 15.5 µM (inactive) | 18.6 µM (inactive) | 19.7 µM (inactive) | 9.46 µM (inactive) | 34.9 µM (inactive) | 41.5 µM (inactive)
O=[N+]([O-])c1ccc(C2N3CCCCC3[C@@H]3c4[nH]c5ccccc5c4CCN23)cc1 (stereo not given in full) | 6.44 µM (inactive) | 27.5 µM (inactive) | 19.5 µM (inactive) | 30.4 µM (inactive) | 44.6 µM (inactive) | 15.4 µM (inactive) | 3.48 µM (inactive) | 14.3 | 11.3 µM (inactive) | 16.9 µM (inactive) | – | 22.6 µM (inactive) | 16.1 µM (inactive) | 7.82 µM (inactive) | 16.5 µM (inactive) | 18.4 µM (inactive)
CCCC(O)[C@@H](O)c1ccc2c(c1O)C(=O)c1c(OC)cccc1C2=O (stereo not given in full) | 38.5 µM (inactive) | 31.3 µM (inactive) | 55.2 µM (inactive) | 30.1 µM (inactive) | 58.2 µM (inactive) | 40.4 µM (inactive) | 38.9 µM (inactive) | 26.2 | 34.5 µM (inactive) | 46.8 µM (inactive) | 27.4 µM (inactive) | 63.2 µM (inactive) | 31.6 µM (inactive) | 34.3 µM (inactive) | 29.9 µM (inactive) | 34.8 µM (inactive)
CCCCCCCCCCCCCCCCCC(=O)NCC(COP(=O)([O-])OCC[N+](C)(C)C)OC (stereo not given) | 5.66 µM (inactive) | 2.02 µM (inactive) | 2.87 µM (inactive) | 10.9 µM (inactive) | 2.64 µM (inactive) | 3.85 µM (inactive) | 3.45 µM (inactive) | 1.95 | 3.03 µM (inactive) | – | 10.6 µM (inactive) | 10.9 µM (inactive) | 11.5 µM (inactive) | > 10 µM (inactive) | 15.9 µM (inactive) | 3.37 µM (inactive)
